Measurements published in patent publication US12435044B2, “Pyridazinone herbicides and pyridazinone intermediates used to prepare a herbicide” (FMC Corporation, priority 2018, dated 2025).

What was measured:
Assay in all cases: Test C pre-/postemergence greenhouse test
Format in all cases: in vivo
[1] = tested on: blackgrass (Alopecurus myosuroides); details: scale 0 to 100
From the text: (§1) Seeds of plant species selected from blackgrass (Alopecurus myosuroides), ryegrass, Italian (Lolium multiflorum), wheat, winter (winter wheat, Triticum aestivum), galium (catchweed bedstraw, Galium aparine), corn (Zea mays), crabgrass, large (Digitaria sanguinalis), foxtail, giant (Setaria faberii), johnsongrass (Sorghum halepense), lambsquarters (Chenopodium album), morningglory (Ipomoea coccinea), nutsedge, yellow (Cyperus esculentus), pigweed (Amaranthus retroflexus), ragweed (common ragweed, Ambrosia elatior), soybean (Glycine max), barnyardgrass (Echinochloa crus-galli), oilseed rape (Brassica napus), waterhemp (common waterhemp, Amaranthus rudis), pigweed, palmer (Amaranthus palmeri), kochia (Kochia scoparia), oat, wild (Avena fatua), surinam grass (Brachiaria decumbens), windgrass (Apera spica-venti), poinsettia, wild (Euphorbia heterophylla) and velvetleaf (Abutilon theophrasti) were planted into a silt loam soil and treated preemergence with test chemicals formulated in a non-phytotoxic solvent mixture which included a surfactant.
(§2) At the same time, plants selected from these crop and weed species and also chickweed (common chickweed, Stellaria media), buckwheat, wild (Polygonum convolvulus), mustard, wild (Sinapis arvensis), field poppy (Papaver rhoeas), field violet (Viola arvensis), nightshade (eastern black nightshade, Solanum ptycanthum), speedwell (bird's-eye speedwell, Veronica persica), horseweed (Conyza canadensis), cutleaf geranium (Geranium dissectum), and Canada thistle (Cirsium arvense) were planted in pots containing Redi-Earth® planting medium (Scotts Company, 14111 Scottslawn Road, Marysville, Ohio 43041) comprising spaghnum peat moss, vermiculite, wetting agent and starter nutrients and treated with postemergence applications of test chemicals formulated in the same manner. Plants ranged in height from 2 to 18 cm (1- to 4-leaf stage) for postemergence treatments. Treated plants and controls were maintained in a greenhouse for 13 to 21 d, after which time all species were compared to controls and visually evaluated. Plant response ratings, summarized in Table C-1 (postemergence) and C-2 (preemergence), are based on a scale of 0 to 100 where 0 is no effect and 100 is complete control. A dash (-) response means no test result.

[2] = tested on: crabgrass, large (Digitaria sanguinalis); details: scale 0 to 100
From the text: as §1, §2

[3] = tested on: foxtail, giant (Setaria faberii); details: scale 0 to 100
From the text: as §1, §2

[4] = tested on: lambsquarters (Chenopodium album); details: Preemergence, scale 0 to 100
From the text: as §1, §2

[5] = tested on: morningglory (Ipomoea coccinea); details: Preemergence, scale 0 to 100
From the text: as §1, §2

[6] = tested on: oilseed rape (Brassica napus); details: Preemergence, scale 0 to 100
From the text: as §1, §2

[7] = tested on: poinsettia, wild (Euphorbia heterophylla); details: Preemergence, scale 0 to 100
From the text: as §1, §2

[8] = tested on: ragweed (common ragweed, Ambrosia elatior); details: scale 0 to 100
From the text: as §1, §2

[9] = tested on: ryegrass, Italian (Lolium multiflorum); details: Preemergence, scale 0 to 100
From the text: as §1, §2

[10] = tested on: soybean (Glycine max); details: scale 0 to 100
From the text: as §1, §2

[11] = tested on: velvetleaf (Abutilon theophrasti); details: Preemergence, scale 0 to 100
From the text: as §1, §2

[12] = tested on: wheat, winter (winter wheat, Triticum aestivum); details: scale 0 to 100
From the text: as §1, §2

[13] = tested on: windgrass (Apera spica-venti); details: Preemergence, scale 0 to 100
From the text: as §1, §2

Cc1ccc2ccc(F)cc2c1-c1c(O)c(Cl)nn(C)c1=O [Cpd. No. 21]
Plant response rating, Blackgrass ([1]; Postemergence, 16 g ai/ha): 35 | Plant response rating, Blackgrass ([1]; Postemergence, 31 g ai/ha): 60 | Plant response rating, Blackgrass ([1]; Postemergence, 62 g ai/ha): 65 | Plant response rating, Blackgrass ([1]; Postemergence, 125 g ai/ha): 70 | Plant response rating, Blackgrass ([1]; Preemergence, 31 g ai/ha): 50 | Plant response rating, Blackgrass ([1]; Preemergence, 61 g ai/ha): 35 | Plant response rating, Blackgrass ([1]; Preemergence, 62 g ai/ha): 85 | Plant response rating, Blackgrass ([1]; Preemergence, 125 g ai/ha): 85 | Plant response rating, Crabgrass, Large ([2]; Postemergence, 16 g ai/ha): 40 | Plant response rating, Crabgrass, Large ([2]; Postemergence, 31 g ai/ha): 70 | Plant response rating, Crabgrass, Large ([2]; Postemergence, 62 g ai/ha): 40 | Plant response rating, Crabgrass, Large ([2]; Postemergence, 125 g ai/ha): 70 | Plant response rating, Crabgrass, Large ([2]; Preemergence, 31 g ai/ha): 25 | Plant response rating, Crabgrass, Large ([2]; Preemergence, 61 g ai/ha): 0 | Plant response rating, Crabgrass, Large ([2]; Preemergence, 62 g ai/ha): 30 | Plant response rating, Crabgrass, Large ([2]; Preemergence, 125 g ai/ha): 65 | Plant response rating, Foxtail, Giant ([3]; Postemergence, 16 g ai/ha): 70 | Plant response rating, Foxtail, Giant ([3]; Postemergence, 31 g ai/ha): 85 | Plant response rating, Foxtail, Giant ([3]; Postemergence, 62 g ai/ha): 90 | Plant response rating, Foxtail, Giant ([3]; Postemergence, 125 g ai/ha): 93 | Plant response rating, Foxtail, Giant ([3]; Preemergence, 31 g ai/ha): 85 | Plant response rating, Foxtail, Giant ([3]; Preemergence, 61 g ai/ha): 10 | Plant response rating, Foxtail, Giant ([3]; Preemergence, 62 g ai/ha): 98 | Plant response rating, Foxtail, Giant ([3]; Preemergence, 125 g ai/ha): 100 | Plant response rating, Lambsquarters ([4]; 31 g ai/ha): 70 | Plant response rating, Lambsquarters ([4]; 61 g ai/ha): 75 | Plant response rating, Lambsquarters ([4]; 62 g ai/ha): 85 | Plant response rating, Lambsquarters ([4]; 125 g ai/ha): 98 | Plant response rating, Morningglory ([5]; 31 g ai/ha): 40 | Plant response rating, Morningglory ([5]; 61 g ai/ha): 5 | Plant response rating, Morningglory ([5]; 62 g ai/ha): 80 | Plant response rating, Morningglory ([5]; 125 g ai/ha): 95 | Plant response rating, Oilseed Rape ([6]; 31 g ai/ha): 85 | Plant response rating, Oilseed Rape ([6]; 61 g ai/ha): 0 | Plant response rating, Oilseed Rape ([6]; 62 g ai/ha): 98 | Plant response rating, Oilseed Rape ([6]; 125 g ai/ha): 100 | Plant response rating, Poinsettia, Wild ([7]; 31 g ai/ha): 5 | Plant response rating, Poinsettia, Wild ([7]; 61 g ai/ha): 0 | Plant response rating, Poinsettia, Wild ([7]; 62 g ai/ha): 10 | Plant response rating, Poinsettia, Wild ([7]; 125 g ai/ha): 25 | Plant response rating, Ragweed ([8]; Postemergence, 16 g ai/ha): 90 | Plant response rating, Ragweed ([8]; Postemergence, 31 g ai/ha): 95 | Plant response rating, Ragweed ([8]; Postemergence, 62 g ai/ha): 98 | Plant response rating, Ragweed ([8]; Postemergence, 125 g ai/ha): 98 | Plant response rating, Ragweed ([8]; Preemergence, 31 g ai/ha): 100 | Plant response rating, Ragweed ([8]; Preemergence, 61 g ai/ha): 45 | Plant response rating, Ragweed ([8]; Preemergence, 62 g ai/ha): 98 | Plant response rating, Ragweed ([8]; Preemergence, 125 g ai/ha): 95 | Plant response rating, Ryegrass, Italian ([9]; 31 g ai/ha): 98 | Plant response rating, Ryegrass, Italian ([9]; 61 g ai/ha): 50 | Plant response rating, Ryegrass, Italian ([9]; 62 g ai/ha): 98 | Plant response rating, Ryegrass, Italian ([9]; 125 g ai/ha): 100 | Plant response rating, Soybean ([10]; Postemergence, 16 g ai/ha): 10 | Plant response rating, Soybean ([10]; Postemergence, 31 g ai/ha): 13 | Plant response rating, Soybean ([10]; Postemergence, 62 g ai/ha): 20 | Plant response rating, Soybean ([10]; Postemergence, 125 g ai/ha): 23 | Plant response rating, Soybean ([10]; Preemergence, 31 g ai/ha): 0 | Plant response rating, Soybean ([10]; Preemergence, 61 g ai/ha): 0 | Plant response rating, Soybean ([10]; Preemergence, 62 g ai/ha): 0 | Plant response rating, Soybean ([10]; Preemergence, 125 g ai/ha): 0 | Plant response rating, Velvetleaf ([11]; 31 g ai/ha): 75 | Plant response rating, Velvetleaf ([11]; 61 g ai/ha): 40 | Plant response rating, Velvetleaf ([11]; 62 g ai/ha): 75 | Plant response rating, Velvetleaf ([11]; 125 g ai/ha): 95 | Plant response rating, Wheat ([12]; Postemergence, 16 g ai/ha): 45 | Plant response rating, Wheat ([12]; Postemergence, 31 g ai/ha): 65 | Plant response rating, Wheat ([12]; Postemergence, 62 g ai/ha): 78 | Plant response rating, Wheat ([12]; Postemergence, 125 g ai/ha): 80 | Plant response rating, Wheat ([12]; Preemergence, 31 g ai/ha): 90 | Plant response rating, Wheat ([12]; Preemergence, 61 g ai/ha): 5 | Plant response rating, Wheat ([12]; Preemergence, 62 g ai/ha): 90 | Plant response rating, Wheat ([12]; Preemergence, 125 g ai/ha): 90 | Plant response rating, Windgrass ([13]; 31 g ai/ha): 75 | Plant response rating, Windgrass ([13]; 61 g ai/ha): 50 | Plant response rating, Windgrass ([13]; 62 g ai/ha): 85 | Plant response rating, Windgrass ([13]; 125 g ai/ha): 98
